System: Primary rat aorta smooth muscle cell cultures
Assay: smooth muscle cell proliferation ([3H]-thymidine incorporation)
Assay type: cell-based
Settings: [3H]-thymidine (0.5 µCi/mL), 24 hours at 37°C, M 199 plus 10% fetal bovine serum, cells per well as percent of control
From the text: This utility was established by subjecting the compound to the following standard experimental test procedure:
Primary rat aorta smooth muscle cell cultures grown in media 199 (Gibco ) plus 10% fetal bovine serum (Gibco) were washed with calcium, magnesium free Dulbecco's phosphate buffered saline and trypsinized for five minutes. Cells were scraped from culture dishes with a rubber policeman and centrifuged. Cells were resuspended in M 199 plus 10% fetal bovine serum containing [^3H)-thymidine (0.5 µCi/mL) at 8-15,000 cells/mL, and were placed into plate wells. The novel intermediate was added to each well and the plates were incubated for 24 hours at 37°C. in a 5% CO2 atmosphere. The cultured cells were treated with trichloracetic acid to remove acid soluble proteins, leaving only cell superstructure and DNA. These cells were solubilized, counted by scintillation and the results compared with control to determine the number of cells per well, the difference in cells being expressed as a percent of control.

CC(=O)[C@@]1(C)CC[C@H]2[C@@H]3C[C@@](C)(O)C4=CC(=O)CC[C@]4(C)[C@H]3CC[C@@]21C [6β - Hydroxy - 6α,17α - dimethylpregn - 4 - ene - 3,20 - dione]
IC50: 26.4 µM
